Like-named read-outs stand apart in the source and are kept apart here. Where no end group is shown, it is not given here.
Tests used:
[1] = tested on: AD phenotype of skin biopsies (white space; Filaggrin, Involucrin, TSLP); assay: Atopic Dermatitis (AD) model in skin biopsies; format: cell-based; settings: for phenotype: donor ALC1373, 0.1 and 1.0 μg/ml, appeared an improvement above Clobetasol; for phenotype ("white space") analysis: 0.1, 1.0 and 2.5 μg/ml, not as apparent as Clobetasol
Method: The AD phenotype was assessed by measuring the intensity of the “white space” within the biopsies—this was increased from 20% in the media alone control to 80% on AD induction and reduced with Clobetasol (a topical corticosteroid) to 40%. All concentrations of the compound (JEL0305, JEL2603, JEL1103 or JEL0802) reduced the white space by between 50 and 60% as a similar trend to Clobetasol. Three further donors (ALC1373, ALC1366 and ALC1365) were used to develop atopic dermatitis after treatment with activated PBMC and a cytokine cocktail model and assessed phenotypically as well as by biomarker (Filaggrin, Involucrin and TSLP) by immunohistochemistry. For 2 donors (ALC1366 and ALC1365) Filaggrin and Involucrin were reduced compared non-AD induced skin biopsies in media alone. This is the expected response for AD induction. In the presence of the control drug Clobetasol the expression of Filaggrin and Involucrin was increased due to the drug reversing the AD phenotype. […] But this was not as apparent as Clobetasol more than likely due to the lipid formulation causing an upregulation of cytokines. […] Filaggrin results were inconclusive.

[2] = tested on: human TNFα in activated M1-macrophages (THP1-derived, LPS-activated); assay: In vitro anti-inflammatory activity (ELISA), TNFα as marker; format: cell-based; settings: compared with T0, 100 ng/mL
Method: The anti-inflammatory response of each free peptide and each peptide-polymer formulation was determined using TNFα as a marker. The anti-inflammatory bioactivity was assessed using enzyme-linked immunosorbent assay (ELISA) for quantitative detection of human TNFα in activated M1-macrophages. THP1 human monocytes were differentiated into macrophages (M0), which were then activated (overnight) with lipopolysaccharide (LPS) into M1-macrophages. LPS prompts the abundant production of many pro-inflammatory cytokines from macrophages, including TNF-α, which actively contributes to the inflammatory response. At the T0 and T4 (after 4 weeks storage at RT or 4° C.) time points, each JEL peptide and each JEL-polymer formulation was incubated in previously LPS-activated M1-macrophages for 24 h at 37° C. After incubation, supernatants were collected, centrifuged and stored at −80° C. in readiness for the enzyme-linked immunosorbent assay (ELISA). Each supernatant sample was defrosted and the ELISA assay undertaken according to the Invitrogen protocol. FIGS. 1-4 show the concentrations of human TNFα detected by ELISA after incubation with each free and polymer loaded peptide at a concentration of 100 ng/mL.

[3] = tested on: HLA (human leucocyte antigen) mismatched GvHD model; assay: Skimune skin explant assay, HLA mismatched GvHD model; format: cell-based; settings: LNP formulation of the compound, added throughout the mixed lymphocyte reaction and spiked into the skin explant
[4] = tested on: pro-inflammatory cytokines including Th1 (IFNγ, TNFα, IL-1β) and Th2 cytokines (IL-13 and IL-4)
[5] = tested on: pro-inflammatory cytokines including Th1 (IFNγ, TNFα, IL-1β) and Th2 cytokines (IL-13 and IL-4); assay: Cytokine levels from the Skimune assays; settings: current concentrations and lipid formulation; GvHD type assays
[6] = donors ALC1366 and ALC1365, compound at 0.1, 1.0 and 2.5 μg/ml
[7] = after 4 weeks storage at room temperature (RT)

Molecule | anti-inflammatory activity (human TNFα detected by ELISA) after storage ([2]; after 4 weeks storage at 4° C.) | anti-inflammatory activity (human TNFα detected by ELISA) after storage [2, 7] | Graft versus Host reaction grade [3] | inhibition of the Graft versus Host response [3] | phenotype [1] | phenotype ("white space") analysis ([1]; donors ALC1366 and ALC1365) | pro-inflammatory cytokines [4] | pro-inflammatory cytokines [5] | further results
C[C@H]1C[C@H]2[C@@H]3CCC4=CC(=O)C=C[C@]4(C)[C@@]3(F)[C@@H](O)C[C@]2(C)[C@@]1(O)C(=O)CCl [Clobetasol, reference compound] | – | – | – | – | – | – | – | – | intensity of the "white space" within the biopsies ([1]; 20% in media alone control, 80% on AD induction): 40%; Filaggrin expression by immunohistochemistry [1, 6]: increased; Involucrin expression by immunohistochemistry [1, 6]: increased
HKSRARLIFHEGPCGVRR [JEL1103] | maintained | maintained | Grade III | no inhibition | some improvement of the phenotype | improved and reversal of damage | significant increases | – | –
SRALKIFLATRKDRSPWH [JEL2603] | some diminution of anti-inflammatory activity | activity is lost | Grade III | no inhibition | some improvement of the phenotype | improved and reversal of damage | significant increases | – | –
SRALLIFQKI [JEL0802, Ser-Arg-Ala-Leu-Leu-Ile-Phe-Gln-Lys-Ile] | – | – | – | – | – | – | – | significant increases | –
VSRATRIFKLSQLRGQCA [JEL0305, Val-Ser-Arg-Ala-Thr-Arg-Ile-Phe-Lys-Leu-Ser-Gln-Leu-Arg-Gly-Gln-Cys-Ala] | – | – | – | – | – | – | – | significant increases | –

From patent US20260184742A1, “PEPTIDES” (CAROCELL BIO LIMITED, priority 2022, published 2026)
